Test results: patent EP4737451A1 (Dong Wha Pharm. Co., Ltd., priority 2023, dated 2025)

What was measured:
[1] = molecular target: T1, IRAK4 enzyme (Homo sapiens, UniProt Q9NWZ3); experiment: IRAK4 enzyme activity inhibition (ADP-Glo, Promega kit); type: biochemical; conditions: for inhibition at 0.1 µM: test compound 0.1 uM; for inhibition at 1 µM: test compound 1 uM
T1 construct: purchased Promega V2621
T1 sequence (Q9NWZ3 1-460): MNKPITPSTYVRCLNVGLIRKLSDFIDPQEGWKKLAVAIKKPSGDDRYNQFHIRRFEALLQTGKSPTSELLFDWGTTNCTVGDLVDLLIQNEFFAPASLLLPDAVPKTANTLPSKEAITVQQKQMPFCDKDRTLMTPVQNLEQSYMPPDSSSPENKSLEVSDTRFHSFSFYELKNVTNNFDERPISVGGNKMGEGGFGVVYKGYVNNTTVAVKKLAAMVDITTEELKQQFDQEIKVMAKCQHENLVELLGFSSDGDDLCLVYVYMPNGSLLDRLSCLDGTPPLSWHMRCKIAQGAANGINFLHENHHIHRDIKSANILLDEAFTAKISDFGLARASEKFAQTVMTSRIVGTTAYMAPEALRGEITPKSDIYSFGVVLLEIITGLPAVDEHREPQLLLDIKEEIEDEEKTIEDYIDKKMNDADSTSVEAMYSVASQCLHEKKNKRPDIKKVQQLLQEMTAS
Summary of the method: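 IRAK4 with MBP/ATP mix (0.1 µg/µL MBP, 1.25 mM ATP before dilution) in 40 mM Tris-HCl pH 7.5, 20 mM MgCl2, BSA, DTT. Compounds were serially diluted from 1 mM and enzyme added at 5 ng/µL, then 60 min at 37°C. ADP-Glo luminescence read-out; IC50 by non-linear regression of % inhibition.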

[2] = molecular target: T2, IRAK1 enzyme (Homo sapiens, UniProt P51617); experiment: IRAK1 enzyme activity inhibition (ADP-Glo, Promega kit); type: biochemical; conditions: for inhibition at 0.1 µM: test compound 0.1 uM; for inhibition at 1 µM: test compound 1 uM
T2 construct: purchased Promega VA7477
Protocol: An experiment on IRAK1 enzyme activity inhibition of the compound of the present invention was conducted.
An IRAK1 enzyme kit (purchased from Promega, product number: VA7477) was used to dilute a mixed solution between 0.1 µg/µL of protein kinase B (AKT), which is an enzyme-reactive substrate, and 1.25 mM of ATP with a reaction buffer (40 mM Tris-HCl, pH 7.5; 20 mM MgCl2; 0.1 mg/mL BSA; 50 µM DTT) according to the instructions, so as to dispense 2 µL in a 384-well white plate, and then to add 1 µL of a test compound, which was gradient diluted starting from 1 mM, to a 384-well white plate. After that, an IRAK1 enzyme was diluted with a reaction buffer to a final concentration of 5 ng/µL, then 2 µL/well was dispensed into a 384-well white plate and reacted at 37°C for 60 minutes. After completion of a reaction, an ADP-GloTM enzyme test kit (purchased from Promega, product number: V9102) was used to add 5 µL of ADP-Glo reaction reagent and cause a reaction at 37°C for 40 minutes, and then 10 µL of enzyme chromogenic reagent was added again to measure a luminescence signal using equipment for measuring absorbance (THECAN, Microplate Reader). An activity inhibition rate was calculated from a measured value, and a 50% inhibition concentration (IC50 value) was analyzed through a non-linear regression analysis based on the % inhibition for each concentration of the test compound, and is shown in Table 3.

[3] = tested on: hPBMC TNFα; experiment: Cell-based inflammatory cytokine secretion inhibition (LPS-stimulated PBMC, hTNF-α ELISA); conditions: human PBMC, LPS 1 µg/mL, hTNF-α by ELISA, mean; read-out: hPBMC TNFα IC50_mean
Protocol: An experiment on inflammatory cytokine secretion inhibition of the compound of the present invention was conducted.
PBMC (LONZA, peripheral blood mononuclear cells) isolated from human whole blood was dispensed into a 96-well plate at a density of 1.0 X 10^5 cells/well, and the cells were stabilized for 20 hours. After that, a test compound diluted at each of four concentrations was added to a Roswell Park Memorial Institute (RPMI) medium, reacted for one hour, treated with lipopolysaccharide (LPS) to reach a final concentration of 1 µg/mL, and further reacted for one hour. hTNF-α, which is an inflammatory cytokine, was measured by an enzyme linked immunosorbent assay using an ELISA kit from Goma Biotech. A cell supernatant, a standard drug, and an antibody were added to an ELISA-plate and reacted for four hours in total, after which the plate was washed, reacted with streptavidin-HRP for 30 minutes, and washed again. After that, a TMB substrate was added and reacted in a dark place, and when a color was sufficiently developed, a stop solution was added to stop the reaction. hTNF-α was measured by measuring absorbance at 450 nm using equipment for absorption measurement (Microplate Reader from BioTeK). An activity inhibition rate was calculated from a measured absorbance value, a % inhibition for each concentration of the test compound was calculated, a 50% inhibition concentration (IC50 value) was analyzed through a non-linear regression analysis, and the results are shown in Table 4.

T2 sequence (P51617 whole entry): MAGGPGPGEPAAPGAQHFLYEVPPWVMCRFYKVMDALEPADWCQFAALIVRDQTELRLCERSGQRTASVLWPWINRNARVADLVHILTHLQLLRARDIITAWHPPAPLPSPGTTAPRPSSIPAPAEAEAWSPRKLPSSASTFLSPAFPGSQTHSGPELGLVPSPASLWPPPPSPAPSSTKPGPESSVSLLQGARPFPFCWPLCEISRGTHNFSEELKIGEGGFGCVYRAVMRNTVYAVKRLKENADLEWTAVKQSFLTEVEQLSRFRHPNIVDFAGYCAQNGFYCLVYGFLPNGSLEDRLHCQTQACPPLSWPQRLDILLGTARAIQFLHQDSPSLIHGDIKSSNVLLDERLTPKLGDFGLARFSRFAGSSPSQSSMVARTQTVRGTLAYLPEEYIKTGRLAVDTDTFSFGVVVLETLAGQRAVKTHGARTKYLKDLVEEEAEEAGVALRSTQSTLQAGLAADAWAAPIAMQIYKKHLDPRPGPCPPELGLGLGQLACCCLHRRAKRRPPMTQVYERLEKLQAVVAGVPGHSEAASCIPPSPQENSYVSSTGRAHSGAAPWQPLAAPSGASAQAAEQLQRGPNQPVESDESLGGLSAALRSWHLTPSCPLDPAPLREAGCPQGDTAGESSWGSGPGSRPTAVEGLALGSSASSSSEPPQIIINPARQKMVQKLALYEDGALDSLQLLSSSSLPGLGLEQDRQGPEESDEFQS

IC50 [1] | inhibition at 0.1 µM [1] | inhibition at 0.1 µM [2] | inhibition at 1 µM [2] | IC50 [3] | inhibition at 1 µM [1] | IC50 [2] | Compound
2 nM | 87.1% | 17.5% | 52% | 113 nM |  |  | CC(C)(O)CCn1cc2cc(NC(=O)c3cccc([N+](=O)[O-])c3)c(N3CCC(O)CC3)cc2n1 [Example 32, N-(2-(3-hydroxy-3-methylbutyl)-6-(4-hydroxypiperidin-1-yl)-2H-indazol-5-yl)-3-nitrobenzamide]
0.2 nM | 81.7% |  |  | 51.8 nM | 94.4% | 2600 nM | CC(C)(O)CCn1cc2cc(NC(=O)c3cccc([N+](=O)[O-])c3)c(N3CCOCC3)cc2n1 [Example 3, N-(2-(3-hydroxy-3-methylbutyl)-6-morpholino-2H-indazol-5-yl)-3-nitrobenzamide]
10.5 nM | 88% | 26% | 45.3% | 601 nM |  |  | CC(C)(O)CCn1cc2cc(NC(=O)c3ccc(N)c([N+](=O)[O-])c3)c(N3CCOCC3)cc2n1 [Example 23, 4-amino-N-(2-(3-hydroxy-3-methylbutyl)-6-morpholino-2H-indazol-5-yl)-3-nitrobenzamide]
 | 55.1% |  | 9.6% |  | 68.8% |  | CC(C)(O)Cn1cc2cc(NC(=O)c3cccc([N+](=O)[O-])c3)c(-c3ccsc3)cc2n1 [Example 50, N-(2-(2-hydroxy-2-methylpropyl)-6-(thiophen-3-yl)-2H-indazol-5-yl)-3-nitrobenzamide]
 | 69.7% | 6.5% | 11.2% |  |  |  | CC(C)(O)CCn1cc2cc(NC(=O)c3cccc([N+](=O)[O-])c3)c(N3CCSCC3)cc2n1 [Example 40, N-(2-(3-hydroxy-3-methylbutyl)-6-thiomorpholino-2H-indazol-5-yl)-3-nitrobenzamide]
 | 57.3% | 17.6% | 25.3% |  |  |  | CC(C)(O)CCn1cc2cc(NC(=O)c3cccc(-c4nccs4)c3)c(N3CCOCC3)cc2n1 [Example 27, N-(2-(3-hydroxy-3-methylbutyl)-6-morpholino-2H-indazol-5-yl)-3-(thiazol-2-yl)benzamide]
 | 63% | 1.7% |  |  |  |  | CC(C)(O)CCn1cc2cc(NC(=O)c3cccc([N+](=O)[O-])c3)c(-c3ccc(C(=O)NCC(N)=O)cc3)cc2n1 [Example 43, N-(6-(4-((2-amino-2-oxoethyl)carbamoyl)phenyl)-2-(3-hydroxy-3-methylbutyl)-2H-indazol-5-yl)-3-nitrobenzamide]
0.88 nM | 82.8% | 8.6% |  |  |  |  | CC(C)(O)CCn1cc2cc(NC(=O)c3cccc([N+](=O)[O-])c3)c(N3CCC(C(C)(C)O)CC3)cc2n1 [Example 30, N-(2-(3-hydroxy-3-methylbutyl)-6-(4-(2-hydroxypropan-2-yl)piperidin-1-yl)-2H-indazol-5-yl)-3-nitrobenzamide]

Continued, compound first:

Compound | IC50 [1] | inhibition at 0.1 µM [1] | inhibition at 0.1 µM [2] | inhibition at 1 µM [2] | IC50 [3] | inhibition at 1 µM [1] | IC50 [2]
CC(C)(O)CCn1cc2cc(NC(=O)c3cccc(-c4ccn[nH]4)n3)c(N3CCOCC3)cc2n1 [Example 21, N-(2-(3-hydroxy-3-methylbutyl)-6-morpholino-2H-indazol-5-yl)-6-(1H-pyrazol-5-yl)picolinamide] | 1.5 nM | 89.3% | 67.2% | 82.4% | 11.9 nM | 97.9% | 70 nM
CC(C)(O)CCn1cc2cc(NC(=O)c3cccc(S(N)(=O)=O)c3)c(N3CCC(C(C)(C)O)CC3)cc2n1 [Example 29, N-(2-(3-hydroxy-3-methylbutyl)-6-(4-(2-hydroxypropan-2-yl)piperidin-1-yl)-2H-indazol-5-yl)-3-sulfamoylbenzamide] | 0.88 nM | 93.3% | 54.2% |  | 20.4 nM |  | 
CC(C)(O)CCn1cc2cc(NC(=O)c3cncc([N+](=O)[O-])c3)c(N3CCOCC3)cc2n1 [Example 2, N-(2-(3-hydroxy-3-methylbutyl)-6-morpholino-2H-indazol-5-yl)-5-nitronicotinamide] | 56.7 nM | 72.7% | 32.1% |  | 526 nM | 86.5% | 
CC(C)(O)CCn1cc2cc(NC(=O)c3cccc(S(N)(=O)=O)c3)c(N3CCOCC3)cc2n1 [Example 15] | 3.7 nM | 88.8% | 28.5% | 66.5% | 575 nM | 95.2% | 
CS(=O)(=O)CCn1cc2cc(NC(=O)c3cccc(S(N)(=O)=O)c3)c(N3CCOCC3)cc2n1 [Example 53, N-(2-(2-(methylsulfonyl)ethyl)-6-morpholino-2H-indazol-5-yl)-3-sulfamoylbenzamide] |  | 2.7% | 13.9% |  |  |  | 
CC(C)(O)CCn1cc2cc(NC(=O)c3cccc(C(N)=O)c3)c(N3CCOCC3)cc2n1 [Example 25, N-(2-(3-hydroxy-3-methylbutyl)-6-morpholino-2H-indazol-5-yl)isophthalamide] | 78.5 nM | 81.3% | 24.9% | 54.6% |  |  | 
COC(=O)CCNC(=O)c1cncc(-c2cc3nn(CCC(C)(C)O)cc3cc2NC(=O)c2cccc(S(N)(=O)=O)c2)c1 [Example 48, Methyl 3-(5-(2-(3-hydroxy-3-methylbutyl)-5-(3-sulfamoylbenzamido)-2H-indazol-6-yl)nicotinamido)propanoate] |  | 56.7% | 39.7% |  |  |  | 
CS(=O)(=O)CCn1cc2cc(NC(=O)c3cccc(S(=O)(=O)N4CCOCC4)c3)c(N3CCOCC3)cc2n1 [Example 14, N-(2-(2-(methylsulfonyl)ethyl)-6-morpholino-2H-indazol-5-yl)-3-(morpholinosulfonyl)benzamide] |  | 21.1% |  | 0% |  | 35.6% | 
NC(=O)COCCn1cc2cc(NC(=O)c3cccc(C(N)=O)c3)c(N3CCOCC3)cc2n1 [Example 18, N-(2-(2-(2-amino-2-oxoethoxy)ethyl)-6-morpholino-2H-indazol-5-yl)isophthalamide] |  | 54.8% |  | 23.2% |  | 65.6% | 
CCOC(=O)[C@H](NC(=O)c1ccc(-c2cc3nn(CCC(C)(C)O)cc3cc2NC(=O)c2cccc(S(N)(=O)=O)c2)cc1)C(C)C [Example 47, Ethyl (4-(2-(3-hydroxy-3-methylbutyl)-5-(3-sulfamoylbenzamido)-2H-indazol-6-yl)benzoyl)-D-valinate] |  | 56.8% | 1.3% |  |  |  | 
CS(=O)(=O)CCn1ncc2cc(NC(=O)c3cccc([N+](=O)[O-])c3)c(N3CCOCC3)cc21 [Example 52, N-(1-(2-(methylsulfonyl)ethyl)-6-morpholino-1H-indazol-5-yl)-3-nitrobenzamide] |  | 21.2% | 0% |  |  |  | 
